Results as given in US20050272784A1 (priority 2004, published 2005).

What follows are compounds tested on type III protein secretion system of P. aeruginosa PA103 (ExoU secretion) (assay: Tertiary assay: Type III-dependent secretion of ExoU by P. aeruginosa PA103). Details: Pseudomonas aeruginosa, ExoU secreted into extracellular medium.
Format: cell-based
Source text: Tertiary assay: inhibition of Type III protein secretion of effectors from a Pseudomonas aeruginosa system. Type III protein secretion is used by P. aeruginosa to secrete several essential virulence determinants. One effector of the type III protein secretion system of P. aeruginosa PA103 is the virulence determinants ExoU.
The amount of Type III-dependent secretion of ExoU by P. aeruginosa PA103 can be determined in a cell-based assay by quantification of the 73.9 kDa ExoU protein scereted into the extracellular medium. Such quantitation can be achieved by growing strain PA103 in a deferrated medium in the presence of nitrilotriacetic acid (an inducer of Type III protein secretion in P. aeruginosa) and either in the presence or absence of putative inhibitors. After a prolonged growth period, the cells are sedimented and the supernatants concentrated by ammonium sulfate precipitation. The proteins in the resuspended pellets are separated by electrophoresis on SDS-polyacrylamide gels. After staining gels with Colloidal Blue™, the 73.9 kDa ExoU band is quantitated by scanning through an imager. The effects of inhibitors on the intensity of the ExoU band may be measured relative to that of untreated controls.

Row | SMILES | IC50 [µM]
1 | O=C(N[C@@H](Cc1ccc(Cl)cc1)C(=O)O)c1nc(-c2ccc(C(F)(F)F)cc2)oc1-c1ccc(-c2ccccc2)cc1 [Compound 73, (S)-2-{[5-Biphenyl-4-yl-2-(4-trifluoromethylphenyl)oxazole-4-carbonyl]amino}-3-(4-chlorophenyl)propionic acid] | 56.1
2 | O=C(N[C@@H](COCc1ccccc1)C(=O)O)c1nc(-c2ccc(C(F)(F)F)cc2)oc1-c1ccc2ccccc2n1 [Compound 27, (S)-3-Benzyloxy-2-{[5-quinolin-2-yl-2-(4-trifluoromethylphenyl)oxazole-4-carbonyl]amino}propionic acid] | 93.1
3 | O=C(N[C@@H](COCc1ccccc1)C(=O)O)c1nc(-c2ccc(-c3ccccc3)cc2)oc1-c1ccc(Cl)cc1Cl [Compound 61, (S)-3-Benzyloxy-2-{[2-biphenyl-4-yl-5-(2,4-dichlorophenyl)oxazole-4-carbonyl]amino}propionic acid] | 66.1
4 | O=C(N[C@@H](CSCc1ccccc1)C(=O)O)c1nc(-c2ccc(C(F)(F)F)cc2)oc1-c1cc2ccccc2s1 [Compound 23, (R)-2-{[5-Benzo[b]thien-2-yl-2-(4-trifluoromethylphenyl)oxazole-4-carbonyl]amino}-3-benzylsulfanylpropionic acid] | 40.7

Each compound was assayed on SPI1 type III protein secretion system (SopE'-'Bla secretion) (assay: Primary assay: Type III protein secretion of the chimeric SopE'-'Bla polypeptide by Salmonella enterica). Details: read-out: SopE IC50.
Format: cell-based
Source text: Primary assay: Type III protein secretion of the chimeric SopE′-'Bla polypeptide by Salmonella enterica. This procedure is a cell-based assay that measures the type III-dependent secretion by Salmonella enterica of a plasmid-encoded chimeric polypeptide whose synthesis can be regulated, and which is endowed with an enzymatic activity that can be monitored […] by hydrolysis of a substrate that is unable to penetrate into the bacterial cytoplasm within the time constraints of the reaction. Thus, the colorimetric reaction is not influenced by SopE′-'Bla polypeptide in the bacterial cytoplasm. Instead, it effectively measures the amount of polypeptide that has been secreted from the S. enterica cytoplasm to the extracellular medium via type III system protein secretion.
The SopE′-' Bla recombinant polypeptide consists of two functionally distinct domains spliced together. The N-terminus domain is encoded by a polynucleotide region specifying the signal for type III secretion of the SopE polypeptide of S. enterica, an effector of the SPI1 type III protein secretion system. The C-terminus domain of SopE′-'Bla consists of a 263 amino acid peptide sequence that corresponds to the TEM-1 β-lactamase expressed by plasmid pBR322 but without its N-terminal signal sequence. The TEM-1 β-lactamase part of the SopE′-'Bla chimeric polypeptide is used as a reporter enzyme. It is capable of hydrolyzing nitrocefin resulting in a product whose accumulation can be monitored by colorimetric detection. The secretion of the SopE′-'Bla chimeric polypeptide from the cytoplasm to the extracellular medium is dependent on type III protein secretion.
For this procedure, cells grown under conditions known to favor a functional SPI1 secretion system are induced for expression of the SopE′-'Bla protein and grown either in the presence or in the absence of putative inhibitors for determined time. Nitrocefin is then added to the various cultures and its hydrolysis are used for quantitation. An inhibitor of Type III protein secretion is generally a compound that reduces the signal of the enzymatic reaction by decreasing the amount of SopE′-'Bla secreted into the extracellular medium.

Row | SMILES | IC50 [µM]
5 | O=C(N[C@@H](CSCc1ccccc1)C(=O)O)c1nc(-c2ccc(C(F)(F)F)cc2)oc1-c1ccc2ccccc2n1 [Compound 26, (R)-3-Benzylsulfanyl-2-{[5-quinolin-2-yl-2-(4-trifluoromethylphenyl)oxazole-4-carbonyl]amino}propionic acid] | 5.8
6 | O=C(N[C@@H](CSCc1ccccc1)C(=O)O)c1nc(-c2ccc(C(F)(F)F)cc2)oc1-c1cnc2ccccc2n1 [Compound 11, (R)-3-Benzylsulfanyl-2-{[5-quinoxalin-2-yl-2-(4-trifluoromethylphenyl)oxazole-4-carbonyl]amino}propionic acid] | 42.2
7 | O=C(N[C@@H](CSCc1ccccc1)C(=O)O)c1nc(-c2ccc(C(F)(F)F)cc2)oc1-c1ccc(-c2ccsc2)cc1 [Compound 20, (R)-3-Benzylsulfanyl-2-{[5-(4-thien-3-yl-phenyl)-2-(4-trifluoromethylphenyl)oxazole-4-carbonyl]amino}propionic acid] | 3.3
8 | O=C(NC(Cc1ccc(Cl)cc1)C(=O)O)c1nc(-c2ccc(C(F)(F)F)cc2)oc1-c1cnc2ccccc2n1 (stereo not drawn) [Compound 54, 3-(4-Chlorophenyl)-2-{[5-quinoxalin-2-yl-2-(4-trifluoromethylphenyl)oxazole-4-carbonyl]amino}propionic acid] | 49.4
9 | O=C(N[C@@H](COCc1ccccc1)C(=O)O)c1nc(-c2ccc(-c3ccccc3)cc2)oc1-c1ccc(Cl)c(Cl)c1 [Compound 6, (S)-3-Benzyloxy-2-{[2-biphenyl-4-yl-5-(3,4-dichlorophenyl)oxazole-4-carbonyl]amino}propionic acid] | 25.6
10 | O=C(NC(CSCc1ccccc1)C(=O)O)c1nc(-c2ccc(Oc3ccccc3)cc2)oc1-c1ccc(Cl)nc1Cl (stereo not drawn) [Compound 36, 3-Benzylsulfanyl-2-{[5-(2,6-dichloropyridin-3-yl)-2-(4-phenoxyphenyl)oxazole-4-carbonyl]amino}propionic acid] | 3.3
11 | O=C(NC(Cc1ccc(Cl)cc1)C(=O)O)c1cc(-c2ccc(-c3ccccc3)cc2)nn1-c1cccc(C(F)(F)F)c1 (stereo not drawn) [Compound 74, 2-{[5-Biphenyl-4-yl-2-(3-trifluoromethylphenyl)-2H-pyrazole-3-carbonyl]amino}-3-(4-chlorophenyl)propionic acid] | 1.5
12 | N=C(NO)c1ccc(-c2oc(-c3ccc(C(F)(F)F)cc3)nc2C(=O)N[C@@H](CSCc2ccccc2)C(=O)O)cc1 [Compound 49, (R)-3-Benzylsulfanyl-2-{[5-[4-(N-hydroxycarbamimidoyl)phenyl]-2-(4-trifluoromethylphenyl)oxazole-4-carbonyl]amino}propionic acid] | 34.7
